Measurements published in patent US20250296959A1, “B7-H3 TARGETING PEPTIDES AND CONSTRUCTS THEREOF” (Mariana Oncology Inc., priority 2024, published 2025).
Where two headings read alike, the source gives them in different places. Positions of bridges follow the written chain, without caps; N, C: chain ends. Non-standard residues stand in square brackets, D forms with d. Residues, ends and D or L forms follow the SMILES beside them. *: point of attachment. X2 = O=C(O)CN1CCN(CC(=O)O)CCN(CC(=O)NCCOCCOCCOCCOCC(=O)*)CCN(CC(=O)O)CC1; DOTA = O=C(O)CN1CCN(CC(=O)O)CCN(CC(=O)*)CCN(CC(=O)O)CC1; Phe(4-COOH) = N[C@@H](Cc1ccc(C(=O)O)cc1)C(=O)O; Trp(5-F) = N[C@@H](Cc1c[nH]c2ccc(F)cc12)C(=O)O; PEG8 = NCCOCCOCCOCCOCCOCCOCCOCCOCCC(=O)O; Ala(4-THP) = N[C@@H](CC1CCOCC1)C(=O)O; Val(3-OH) = CC(C)(O)[C@H](N)C(=O)O; Tle = CC(C)(C)[C@H](N)C(=O)O; hLeu = CC(C)CC[C@H](N)C(=O)O

Columns and labels:
human 4lg B7-H3 = target: T1, human 4lg B7-H3 (Homo sapiens, UniProt Q5ZPR3); experiment: Affinity determination by surface plasmon resonance (SPR) to 4Ig B7-H3; conditions: 4Ig B7-H3
T1 sequence (Q5ZPR3 29-534): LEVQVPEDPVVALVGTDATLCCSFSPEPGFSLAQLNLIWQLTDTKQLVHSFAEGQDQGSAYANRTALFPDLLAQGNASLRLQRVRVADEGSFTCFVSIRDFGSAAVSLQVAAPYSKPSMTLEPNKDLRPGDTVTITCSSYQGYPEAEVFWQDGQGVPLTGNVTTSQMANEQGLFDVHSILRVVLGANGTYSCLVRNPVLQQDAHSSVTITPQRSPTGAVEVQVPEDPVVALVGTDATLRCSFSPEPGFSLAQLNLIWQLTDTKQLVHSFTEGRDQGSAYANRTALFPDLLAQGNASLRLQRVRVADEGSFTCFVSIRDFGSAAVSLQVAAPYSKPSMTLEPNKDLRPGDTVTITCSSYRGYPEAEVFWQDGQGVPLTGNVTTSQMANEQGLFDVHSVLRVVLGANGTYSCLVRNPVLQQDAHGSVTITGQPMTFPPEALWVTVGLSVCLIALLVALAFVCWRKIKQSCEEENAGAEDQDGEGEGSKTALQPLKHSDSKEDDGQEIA

Calu-6 cell line [1] = experiment: Net internalization of [177Lu]Lu-labeled peptide in Calu-6 cells; type: cell-based, Human; conditions: 1 hour, 37° C., glycine pH 2.5 acid wash
Method in brief: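 Peptide conjugate labeled with [177Lu]LuCl3 at pH ~5, 80 °C, 17–20 min, and purity checked by RP-HPLC. B7-H3-expressing human Calu-6 lung cancer cells at 5 million cells/mL in 1% PBSA. Internalized fraction: counts left after two 3 min 50 mM glycine pH 2.5 washes and NaOH lysis, gamma counted against bound fraction.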

Calu-6 cell line [2] = experiment: Cell associated (bound) fraction of [177Lu]Lu-labeled peptide in Calu-6 cells; type: cell-based, Human; conditions: 1 hour, 37° C.
Method in brief: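 Peptide conjugate was labelled with [177Lu]LuCl3 in ammonium acetate pH ~5 at 80 °C for 17-20 min, with purity checked by RP-HPLC. Calu-6 suspensions (5 million cells/mL in 1% PBSA) were incubated with 0.8 μCi for 1 h at 37 °C. Cell pellets were gamma-counted after two cold PBS/BSA washes, giving the bound fraction against the unbound supernatant plus washes.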

[3] = read-out: SPR KD—25° C., 25° C. flow cell temperature
[4] = SPR KD—25° C., 25° C. flow cell temperature

SMILES | Kd (human 4lg B7-H3; [3]) | % net internalization (Calu-6 cell line [1]) | % cell associated fraction (Calu-6 cell line [2]) | Kd (human 4lg B7-H3; [4]) | Kd (human 4lg B7-H3; read-out: SPR KD—37° C., 37° C. flow cell temperature)
CC(=O)N[C@@H](CCC(C)C)C(=O)N[C@@H](Cc1ccc(O)cc1)C(=O)N[C@H]1CSSC[C@@H](C(=O)N[C@@H](Cc2c[nH]c3ccc(F)cc23)C(=O)N[C@@H](Cc2ccccc2)C(=O)N2CCC[C@H]2C(=O)N[C@H](CCCCNC(=O)CN2CCN(CC(=O)O)CCN(CC(=O)O)CCN(CC(=O)O)CC2)C(=O)O)NC(=O)[C@H](Cc2ccc(O)cc2)NC(=O)[C@H](C(C)C)NC(=O)[C@H](CC(=O)O)NC(=O)[C@H](CC2CCOCC2)NC(=O)[C@H](CCCCN)NC(=O)CNC(=O)[C@H](C(C)C)NC1=O [compound 288, Ac-hLeu-Y-C-V-G-K-ThpA-D-V-Y-C-5FW-F-Pro-dLys(DOTA)-COOH] (Ac-[hLeu]YCVGK[Ala(4-THP)]DVYC[Trp(5-F)]FP[dK](DOTA)-OH; disulfide 3-11) | < 1 nM | A (%≤25) | B (25<%≤50) |  | 
CC(C)CC[C@H](NC(=O)CCOCCOCCOCCOCCOCCOCCOCCOCCNC(=O)CN1CCN(CC(=O)O)CCN(CC(=O)O)CCN(CC(=O)O)CC1)C(=O)N[C@@H](Cc1ccc(O)cc1)C(=O)N[C@H]1CSSC[C@@H](C(=O)N[C@@H](Cc2c[nH]c3ccc(F)cc23)C(=O)N[C@@H](Cc2ccccc2)C(=O)N2CCC[C@H]2C(N)=O)NC(=O)[C@H](Cc2ccc(O)cc2)NC(=O)[C@H](C(C)C)NC(=O)[C@H](CC(=O)O)NC(=O)[C@H](Cc2ccc(C(=O)O)cc2)NC(=O)[C@H](CCCCN)NC(=O)CNC(=O)[C@H](C(C)C)NC1=O [compound 294, DOTA-PEG8-hLeu-Y-C-V-G-K-4COOHPhe-D-V-Y-C-5FW-F-Pro-CONH2] ({DOTA-PEG8}-[hLeu]YCVGK[Phe(4-COOH)]DVYC[Trp(5-F)]FP-NH2; disulfide 3-11) |  | A (%≤25) | A (%≤25) | 1 to 10 nM | 
CC(=O)N[C@@H](CCC(C)C)C(=O)N[C@@H](Cc1ccc(O)cc1)C(=O)N[C@H]1CSSC[C@@H](C(=O)N[C@@H](Cc2c[nH]c3ccc(F)cc23)C(=O)N[C@@H](Cc2ccccc2)C(=O)N[C@H](C(=O)N[C@H](CCCCNC(=O)CN2CCN(CC(=O)O)CCN(CC(=O)O)CCN(CC(=O)O)CC2)C(=O)O)C(C)(C)O)NC(=O)[C@H](Cc2ccc(O)cc2)NC(=O)[C@H](C(C)C)NC(=O)[C@H](CC(=O)O)NC(=O)[C@H](CC2CCOCC2)NC(=O)[C@H](CCCCN)NC(=O)CNC(=O)[C@H](C(C)(C)C)NC1=O [compound 303, Ac-hLeu-Y-C-Tbg-G-K-ThpA-D-V-Y-C-5FW-F-hydroxyVal-dLys(DOTA)-COOH] (Ac-[hLeu]YC[Tle]GK[Ala(4-THP)]DVYC[Trp(5-F)]F[Val(3-OH)][dK](DOTA)-OH; disulfide 3-11) | < 1 nM | B (25<%≤50) | C (%>50) |  | < 1 nM
CC[C@H](C)[C@@H]1NC(=O)[C@@H](NC(=O)[C@H](Cc2ccc(O)cc2)NC(=O)[C@H](CCC(C)C)NC(C)=O)CSSC[C@@H](C(=O)N[C@@H](Cc2c[nH]c3ccc(F)cc23)C(=O)N[C@@H](Cc2ccccc2)C(=O)N[C@H](C(=O)N[C@H](CCCCNC(=O)COCCOCCOCCOCCNC(=O)CN2CCN(CC(=O)O)CCN(CC(=O)O)CCN(CC(=O)O)CC2)C(=O)O)C(C)(C)O)NC(=O)[C@H](Cc2ccc(O)cc2)NC(=O)[C@H](C(C)C)NC(=O)[C@H](CC(=O)O)NC(=O)[C@H](CC2CCOCC2)NC(=O)[C@H](CCCCN)NC(=O)CNC1=O [compound 308, Ac-hLeu-Y-C-Ile-G-K-ThpA-D-V-Y-C-5FW-F-hydroxyVal-dLys(PEG4-DOTA)-COOH] (Ac-[hLeu]YCIGK[Ala(4-THP)]DVYC[Trp(5-F)]F[Val(3-OH)][dK](X2)-OH; disulfide 3-11) |  | B (25<%≤50) | C (%>50) | < 1 nM | 
